Assay results published in patent US11857519B2, “Compounds and methods for the targeted degradation of enhancer of zeste homolog 2 polypeptide” (Arvinas Operations, Inc., priority 2016, dated 2024).

Target: T1, EZH2 (Homo sapiens, UniProt Q15910)
T1 construct: Protocol of the Cellular Assay of Target Protein Degradation (VCaP Cells, ELISA); endogenous in cells; host or cells: VCaP cells
Assay: Cellular assay of target protein degradation (VCaP cells, ELISA)
Assay type: cell-based
Conditions: 4 hours, protein degradation range at indicated concentration (relative to DMSO control)
Procedure, shortened: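 VCaP cells grown ≥3 days in RPMI with 5% CSS, then dosed with compounds in 0.1% DMSO for 4 h. Lysates analysed by sandwich ELISA for EZH2 with TMB readout at 450 nm, 562 nm used for background subtraction.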

T1 sequence (Q15910 whole entry): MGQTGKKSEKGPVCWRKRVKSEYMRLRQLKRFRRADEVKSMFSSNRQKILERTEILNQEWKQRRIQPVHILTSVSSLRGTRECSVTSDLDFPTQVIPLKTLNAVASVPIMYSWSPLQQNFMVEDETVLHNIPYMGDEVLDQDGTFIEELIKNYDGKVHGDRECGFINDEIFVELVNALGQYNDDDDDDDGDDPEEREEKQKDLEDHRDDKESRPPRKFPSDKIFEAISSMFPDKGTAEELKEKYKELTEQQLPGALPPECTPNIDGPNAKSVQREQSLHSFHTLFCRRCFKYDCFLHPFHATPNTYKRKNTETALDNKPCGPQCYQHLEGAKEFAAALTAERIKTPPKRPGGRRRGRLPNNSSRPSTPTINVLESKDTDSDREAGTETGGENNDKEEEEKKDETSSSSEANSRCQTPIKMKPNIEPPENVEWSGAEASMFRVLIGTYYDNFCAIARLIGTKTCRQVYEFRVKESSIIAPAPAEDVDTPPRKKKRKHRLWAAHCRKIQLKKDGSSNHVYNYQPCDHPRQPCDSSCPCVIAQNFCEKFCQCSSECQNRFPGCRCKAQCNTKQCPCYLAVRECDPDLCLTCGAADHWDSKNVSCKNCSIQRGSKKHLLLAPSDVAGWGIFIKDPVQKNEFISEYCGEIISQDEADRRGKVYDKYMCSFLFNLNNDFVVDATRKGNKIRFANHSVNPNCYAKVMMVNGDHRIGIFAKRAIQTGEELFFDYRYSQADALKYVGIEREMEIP
T1 sequence (O75530 whole entry partner): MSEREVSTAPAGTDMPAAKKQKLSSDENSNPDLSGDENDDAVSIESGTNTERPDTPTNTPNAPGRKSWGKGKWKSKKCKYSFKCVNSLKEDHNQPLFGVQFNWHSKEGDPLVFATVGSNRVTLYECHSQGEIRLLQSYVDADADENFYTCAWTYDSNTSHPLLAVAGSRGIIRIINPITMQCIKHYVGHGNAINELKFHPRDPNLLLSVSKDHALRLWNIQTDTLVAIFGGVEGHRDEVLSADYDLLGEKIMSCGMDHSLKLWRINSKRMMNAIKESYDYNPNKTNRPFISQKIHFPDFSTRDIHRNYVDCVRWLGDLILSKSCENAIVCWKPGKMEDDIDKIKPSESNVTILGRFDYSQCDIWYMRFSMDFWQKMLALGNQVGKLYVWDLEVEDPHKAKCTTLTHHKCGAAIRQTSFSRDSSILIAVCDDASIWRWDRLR
T1 sequence (Q15022 whole entry partner): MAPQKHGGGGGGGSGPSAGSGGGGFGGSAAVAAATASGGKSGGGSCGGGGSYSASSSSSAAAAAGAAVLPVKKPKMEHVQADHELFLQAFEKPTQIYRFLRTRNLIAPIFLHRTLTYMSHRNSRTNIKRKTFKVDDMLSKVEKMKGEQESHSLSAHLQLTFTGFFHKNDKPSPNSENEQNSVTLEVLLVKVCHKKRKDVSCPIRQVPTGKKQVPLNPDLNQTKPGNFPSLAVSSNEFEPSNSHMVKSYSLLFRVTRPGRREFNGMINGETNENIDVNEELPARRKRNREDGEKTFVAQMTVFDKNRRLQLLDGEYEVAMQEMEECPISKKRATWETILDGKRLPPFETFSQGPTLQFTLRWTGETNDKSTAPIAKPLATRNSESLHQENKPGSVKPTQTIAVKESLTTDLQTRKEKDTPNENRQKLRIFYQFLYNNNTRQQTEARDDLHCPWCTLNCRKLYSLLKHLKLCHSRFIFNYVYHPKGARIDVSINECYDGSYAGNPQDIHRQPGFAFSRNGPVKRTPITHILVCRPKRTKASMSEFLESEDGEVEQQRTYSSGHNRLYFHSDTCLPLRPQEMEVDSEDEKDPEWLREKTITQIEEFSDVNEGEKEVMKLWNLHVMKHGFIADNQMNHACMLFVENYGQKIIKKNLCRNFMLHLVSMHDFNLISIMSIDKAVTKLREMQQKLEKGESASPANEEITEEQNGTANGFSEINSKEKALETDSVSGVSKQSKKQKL

Compound	percent target protein degradation class
CCN(c1cc(-c2ccc(OCCCCOCCOCCOc3cc(-c4scnc4C)ccc3CNC(=O)[C@@H]3C[C@@H](O)CN3C(=O)[C@H](C(C)C)N3Cc4ccccc4C3=O)cc2)cc(C(=O)NCc2c(C)cc(C)[nH]c2=O)c1C)C1CCOCC1 [Compound 55, (2S,4R)-N-({2-[2-(2-{4-[4-(3-{[(4,6-dimethyl-2-oxo-1,2-dihydropyridin-3-yl)methyl]carbamoyl}-5-[ethyl(oxan-4-yl)amino]-4-methylphenyl)phenoxy]butoxy}ethoxy)ethoxy]-4-(4-methyl-1,3-thiazol-5-yl)phenyl}methyl)-4-hydroxy-1-[(2S)-3-methyl-2-(1-oxo-2,3-dihydro-1H-isoindol-2-yl)butanoyl]pyrrolidine-2-carboxamide]	B (B = degradation between 30% and 60%)
CCN(c1cc(-c2ccc(OCCCOCCOc3cc(-c4scnc4C)ccc3CNC(=O)[C@@H]3C[C@@H](O)CN3C(=O)[C@H](C(C)C)N3Cc4ccccc4C3=O)cc2)cc(C(=O)NCc2c(C)cc(C)[nH]c2=O)c1C)C1CCOCC1 [Compound 56, (2S,4R)-N-{[2-(2-{3-[4-(3-{[(4,6-dimethyl-2-oxo-1,2-dihydropyridin-3-yl)methyl]carbamoyl}-5-[ethyl(oxan-4-yl)amino]-4-methylphenyl)phenoxy]propoxy}ethoxy)-4-(4-methyl-1,3-thiazol-5-yl)phenyl]methyl}-4-hydroxy-1-[(2S)-3-methyl-2-(1-oxo-2,3-dihydro-1H-isoindol-2-yl)butanoyl]pyrrolidine-2-carboxamide]	B (B = degradation between 30% and 60%)
CCN(c1cc(-c2ccc(OCCOCCOc3ccc4c(c3)C(=O)N(C3CCC(=O)NC3=O)C4=O)cc2)cc(C(=O)NCc2c(C)cc(C)[nH]c2=O)c1C)C1CCOCC1 (stereo not drawn) [Compound 57, N-[(4,6-dimethyl-2-oxo-1,2-dihydropyridin-3-yl)methyl]-5-{4-[2-(2-{[2-(2,6-dioxopiperidin-3-yl)-1,3-dioxo-2,3-dihydro-1H-isoindol-5-yl]oxy}ethoxy)ethoxy]phenyl}-3-[ethyl(oxan-4-yl)amino]-2-methylbenzamide]	B (B = degradation between 30% and 60%)
CCN(c1cc(-c2ccc(OCCOCCCOc3ccc4c(c3)C(=O)N(C3CCC(=O)NC3=O)C4=O)cc2)cc(C(=O)NCc2c(C)cc(C)[nH]c2=O)c1C)C1CCOCC1 (stereo not drawn) [Compound 58, N-[(4,6-dimethyl-2-oxo-1,2-dihydropyridin-3-yl)methyl]-5-{4-[2-(3-{[2-(2,6-dioxopiperidin-3-yl)-1,3-dioxo-2,3-dihydro-1H-isoindol-5-yl]oxy}propoxy)ethoxy]phenyl}-3-[ethyl(oxan-4-yl)amino]-2-methylbenzamide]	A (A = degradation more than 60%)
CCN(c1cc(-c2ccc(N3CCN(CCCCOCC(=O)N[C@H](C(=O)N4C[C@H](O)C[C@H]4C(=O)N[C@@H](C)c4ccc(-c5scnc5C)cc4)C(C)(C)C)CC3)cc2)cc(C(=O)NCc2c(C)cc(C)[nH]c2=O)c1C)C1CCOCC1 [Compound 59, (2S,4R)-1-((S)-2-(2-(4-(4-(3′-(((4,6-dimethyl-2-oxo-1,2-dihydropyridin-3-yl)methyl)carbamoyl)-5′-(ethyl(tetrahydro-2H-pyran-4-yl)amino)-4′-methyl-[1,1′-biphenyl]-4-yl)piperazin-1-yl)butoxy)acetamido)-3,3-dimethylbutanoyl)-4-hydroxy-N-((S)-1-(4-(4-methylthiazol-5-yl)phenyl)ethyl)pyrrolidine-2-carboxamide]	B (B = degradation between 30% and 60%)
CCN(c1cc(-c2ccc(OCCCCOc3ccc4c(c3)C(=O)N(C3CCC(=O)NC3=O)C4=O)cc2)cc(C(=O)NCc2c(C)cc(C)[nH]c2=O)c1C)C1CCOCC1 (stereo not drawn) [Compound 60, N-[(4,6-dimethyl-2-oxo-1,2-dihydropyridin-3-yl)methyl]-5-[4-(4-{[2-(2,6-dioxopiperidin-3-yl)-1,3-dioxo-2,3-dihydro-1H-isoindol-5-yl]oxy}butoxy)phenyl]-3-[ethyl(oxan-4-yl)amino]-2-methylbenzamide]	A (A = degradation more than 60%)
CCN(c1cc(-c2ccc(OCCCN3CCN(c4ccc5c(c4)C(=O)N(C4CCC(=O)NC4=O)C5=O)CC3)cc2)cc(C(=O)NCc2c(C)cc(C)[nH]c2=O)c1C)C1CCOCC1 (stereo not drawn) [Compound 61, N-[(4,6-dimethyl-2-oxo-1,2-dihydropyridin-3-yl)methyl]-5-[4-(3-{4-[2-(2,6-dioxopiperidin-3-yl)-1,3-dioxo-2,3-dihydro-1H-isoindol-5-yl]piperazin-1-yl}propoxy)phenyl]-3-[ethyl(oxan-4-yl)amino]-2-methylbenzamide]	B (B = degradation between 30% and 60%)
CCN(c1cc(-c2ccc(OCCCOCCCOc3ccc4c(c3)C(=O)N(C3CCC(=O)NC3=O)C4=O)cc2)cc(C(=O)NCc2c(C)cc(C)[nH]c2=O)c1C)C1CCOCC1 (stereo not drawn) [Compound 62, N-[(4,6-dimethyl-2-oxo-1,2-dihydropyridin-3-yl)methyl]-5-{4-[3-(3-{[2-(2,6-dioxopiperidin-3-yl)-1,3-dioxo-2,3-dihydro-1H-isoindol-5-yl]oxy}propoxy)propoxy]pheny 1}-3-[ethyl(oxan-4-yl)amino]-2-methylbenzamide]	B (B = degradation between 30% and 60%)
CCN(c1cc(-c2ccc(OCCCCOc3cc(-c4scnc4C)ccc3CNC(=O)[C@@H]3C[C@@H](O)CN3C(=O)[C@H](C(C)C)N3Cc4ccccc4C3=O)cc2)cc(C(=O)NCc2c(C)cc(C)[nH]c2=O)c1C)C1CCOCC1 [Compound 63, (2S,4R)-N-[(2-{4-[4-(3-{[(4,6-dimethyl-2-oxo-1,2-dihydropyridin-3-yl)methyl]carbamoyl}-5-[ethyl(oxan-4-yl)amino]-4-methylphenyl)phenoxy]butoxy}-4-(4-methyl-1,3-thiazol-5-yl)phenyl)methyl]-4-hydroxy-1-[(2S)-3-methyl-2-(1-oxo-2,3-dihydro-1H-isoindol-2-yl)butanoyl]pyrrolidine-2-carboxamide]	B (B = degradation between 30% and 60%)
CCN(c1cc(-c2ccc(OCCOc3cc(-c4scnc4C)ccc3CNC(=O)[C@@H]3C[C@@H](O)CN3C(=O)[C@H](C(C)C)N3Cc4ccccc4C3=O)cc2)cc(C(=O)NCc2c(C)cc(C)[nH]c2=O)c1C)C1CCOCC1 [Compound 64, N-[(2-{2-[4-(3-{[(4,6-dimethyl-2-oxo-1,2-dihydropyridin-3-yl)methyl]carbamoyl}-5-[ethyl(oxan-4-yl)amino]-4-methylphenyl)phenoxy]ethoxy}-4-(4-methyl-1,3-thiazol-5-yl)phenyl)methyl]-4-hydroxy-1-[3-methyl-2-(1-oxo-2,3-dihydro-1H-isoindol-2-yl)butanoyl]pyrrolidine-2-carboxamide]	B (B = degradation between 30% and 60%)
CCN(c1cc(-c2ccc(CCCOCCCCC(=O)N[C@H](C(=O)N3C[C@H](O)C[C@H]3C(=O)N[C@@H](C)c3ccc(-c4scnc4C)cc3)C(C)(C)C)cc2)cc(C(=O)NCc2c(C)cc(C)[nH]c2=O)c1C)C1CCOCC1 [Compound 88, (2S,4R)-1-((S)-2-(5-(3-(3′-(((4,6-dimethyl-2-oxo-1,2-dibydropyridin-3-yl)methyl)carbamoyl)-5′-(ethyl(tetrahydro-2H-pyran-4-yl)amino)-41-methyl-[1,1′-biphenyl]-4-yl)propoxy)pentanamido)-3,3-dimethylbutanoyl)-4-hydroxy-N-((S)-1-(4-(4-methylthiazol-5-yl)phenyl)ethyl)pyrrolidine-2-carboxamide]	A (A = degradation more than 60%)
CCN(c1cc(-c2ccc(CCCOCCOCC(=O)N[C@H](C(=O)N3C[C@H](O)C[C@H]3C(=O)N[C@@H](C)c3ccc(-c4scnc4C)cc3)C(C)(C)C)cc2)cc(C(=O)NCc2c(C)cc(C)[nH]c2=O)c1C)C1CCOCC1 [Compound 89]	A (A = degradation more than 60%)
CCN(c1cc(-c2ccc(OCCCOc3cc(-c4scnc4C)ccc3CNC(=O)[C@@H]3C[C@@H](O)CN3C(=O)[C@H](C(C)C)N3Cc4ccccc4C3=O)cc2)cc(C(=O)NCc2c(C)cc(C)[nH]c2=O)c1C)C1CCOCC1 [Compound 90, (2S,4R)-N-(2-(3-((3′-(((4,6-dimethyl-2-oxo-1,2-dihydropyridin-3-yl)methyl)carbamoyl)-5′-(ethyl(tetrahydro-2H-pyran-4-yl)amino)-4′-methyl-[1,1′-biphenyl]-4-yl)oxy)propoxy)-4-(4-methylthiazol-5-yl)benzyl)-4-hydroxy-1-((S)-3-methyl-2-(1-oxoisoindolin-2-yl)butanoyl)pyrrolidine-2-carboxamide]	B (B = degradation between 30% and 60%)
CCN(c1cc(-c2ccc(OCCN3CCN(c4ccc5c(c4)C(=O)N(C4CCC(=O)NC4=O)C5=O)CC3)cc2)cc(C(=O)NCc2c(C)cc(C)[nH]c2=O)c1C)C1CCOCC1 (stereo not drawn) [Compound 91, N-((4,6-dimethyl-2-oxo-1,2-dihydropyridin-3-yl)methyl)-4′-(2-(4-(2-(2,6-dioxopiperidin-3-yl)-1,3-dioxoisoindolin-5-yl)piperazin-1-yl)ethoxy)-5-(ethyl(tetrahydro-2H-pyran-4-yl)amino)-4-methyl-[1,1′-biphenyl]-3-carboxamide]	A (A = degradation more than 60%)
CCN(c1cc(-c2ccc(OCCCCOCC(=O)N[C@H](C(=O)N3C[C@H](O)C[C@H]3C(=O)N[C@@H](C)c3ccc(-c4scnc4C)cc3)C(C)(C)C)cc2)cc(C(=O)NCc2c(C)cc(C)[nH]c2=O)c1C)C1CCOCC1 [Compound 93]	A (A = degradation more than 60%)
